The structures appear in SMILES notation. Some results are limits rather than exact numbers.

The test has as its target BCL6 (Homo sapiens (Human), UniProt P41182). Nature of the test: Immunofluorescence high content imaging of BCL6 degradation in T47D cells. It counts as cell-based. Particulars: class symbols A-D, read-out: EC50 (nM)*. The protocol:
Immunofluorescence Protocol for High Cotent Imaging of BCL6
T47D cells were seeded in 100 μl volume of RPMI1640-10% FBS in a 96-well black/clear bottom plates for adherent lines (Corning #3904).
Day 1. T47D breast cancer epithelial cells were seeded at a density so that confluence is ˜70-90% at endpoint. Cells were seeded at 7K/0.1 ml/well the morning prior to the addition of exemplary bifunctional degradation compounds.
Day 2. Prepare an 11 point 3-fold serial dilution of exemplary bifunctional compound in DMSO and aliquot an appropriate volume to cell growth media to generate a 2× final concentration of exemplary bifunctional compound. Add an equal volume (0.1 ml) of 2× exemplary bifunctional compound/media mix to previously plated cells, for a final top concentration in aqueous cell growth media of 0.1 or 1 μM. Incubate for 3 days at 37° C., 5% CO2.
Day 5 Immunofluorescence. Discard cell media. Wash wells with 200 μl of room temperature phosphate-buffered saline (PBS). Prepared 4% paraformaldehyde (PFA) from 16% PFA (Electron Microscopy Sciences #15710) using 1×PBS. Fifty μl of 4% PF was added to each well and incubate for 15 minutes at room temperature to fix the cells. The PFA was aspirated and the cells washed twice with PBS (200 μl)).
Prepared 0.1% Triton X-100 in PBS using 10% triton X-100 stock. The cells were permeabilized by adding 100 ul of the 0.1% Triton X-100 in PBS to each well to permeabilize cells and incubating at room temperature for 15 minutes. Cells were washed twice with PBS.
Prepared 3% BSA/PBS (from Thermofisher #37515 Blocker BSA in TBS, 10%), and 100 ul was added to each well. The cells were incubated for at least 1 hour at room temperature.
Prepared 1% BSA/PBS using Blocker BSA/PBS, and the 3% BSA/PBS removed from the wells.
For no primary antibody controls, 50 μl 1% BSA/PBS was added.
Primary antibody (BCL6 Rb Ab, CST-14895, Cell Signaling) was diluted 1:300 in 1% BSA/PBS using Blocker BSA/PBS.
Fifty μl of primary antibody added to all remaining wells (i.e., all wells other than the primary antibody controls) and the cells were incubated overnight at 4° C. with slow orbital movement.
Day 6. Contents of the wells was removed and the cells washed four times with 200 ul PBS. 1% BSA/PBS was prepared using Blocker BSA in PBS.
Diluted secondary antibody goat anti-Rb IgG Alexa-488 1:1000, and cell mask-Alexa-647 1:3000 in 1% BSA/PBS in the same mix. Add 50 μl to each well and incubate at room temperature for 1 hour in the dark.
Cells were washed three times with 200 ul PBS, and then incubated for 10 minutes with 100 ul Hoechst dye at 1 μg/mL (20 mM stock) to stain cell nuclei. Wells were then washed with 200 μl PBS, and 100 ul of PBS was added to each well and the plate covered plate with a plastic opaque cover. Plates were stored at 4° C. and covered in aluminum foil until imaged.
Plates were equilibrated to room temperature prior to reading. The bottom of the plate was wiped with 70% isopropanol immediately prior to imaging.
10×, 4 fields/well, include Top hat smoothing in the analysis protocol.
As for `CNC(=O)COc1cc2cc(Nc3nc(N4CCC(OCCOCCNc5cccc6c5C(=O)N(C5CCC(=O)NC5=O)C6=O)CC4)ncc3Cl)ccc2n(C)c1=O` (centres unmarked) [compound 75, 2-((6-((5-chloro-2-(4-(2-(2-((2-(2,6-dioxopiperidin-3-yl)-1,3-dioxoisoindolin-4-yl)amino)ethoxy)ethoxy)piperidin-1-yl)pyrimidin-4-yl)amino)-1-methyl-2-oxo-1,2-dihydroquinolin-3-yl)oxy)-N-methylacetamide], the DC50 lay within 50 to 100 nM.
For the molecule `CN1C(=O)CCc2cc(Nc3cc(OC4CCN(C(=O)COCCOc5ccc6c(c5)C(=O)N(C5CCC(=O)NC5=O)C6=O)CC4)c([N+](=O)[O-])cc3Cl)ccc21` (centres unmarked) [compound 76, 5-(2-(2-(4-(4-chloro-5-((1-methyl-2-oxo-1,2,3,4-tetrahydroquinolin-6-yl)amino)-2-nitrophenoxy)piperidin-1-yl)-2-oxoethoxy)ethoxy)-2-(2,6-dioxopiperidin-3-yl)isoindoline-1,3-dione], the DC50 is over 100 nM.
In the case of `CN1C(=O)CCc2cc(Nc3cc(N4CCC(CN5CCN(c6ccc7c(c6)C(=O)N(C6CCC(=O)NC6=O)C7=O)CC5)CC4)c([N+](=O)[O-])cc3Cl)ccc21` (centres unmarked) [compound 77, 5-(4-((1-(4-chloro-5-((1-methyl-2-oxo-1,2,3,4-tetrahydroquinolin-6-yl)amino)-2-nitrophenyl)piperidin-4-yl)methyl)piperazin-1-yl)-2-(2,6-dioxopiperidin-3-yl)isoindoline-1,3-dione], the DC50 is over 100 nM.
As for `CNC(=O)COc1cc2cc(Nc3nc(N4CCC(OCCOCCOCCOCCOCC(=O)N[C@H](C(=O)N5C[C@H](O)C[C@H]5C(=O)NCc5ccc(-c6scnc6C)cc5)C(C)(C)C)CC4)ncc3Cl)ccc2n(C)c1=O` [compound 78, (2S,4R)-1-((S)-2-(tert-butyl)-17-((1-(5-chloro-4-((1-methyl-3-(2-(methylamino)-2-oxoethoxy)-2-oxo-1,2-dihydroquinolin-6-yl)amino)pyrimidin-2-yl)piperidin-4-yl)oxy)-4-oxo-6,9,12,15-tetraoxa-3-azaheptadecanoyl)-4-hydroxy-N-(4-(4-methylthiazol-5-yl)benzyl)pyrrolidine-2-carboxamide], the DC50 lay within 10 to 50 nM.
Then `CN1C(=O)CCc2cc(Nc3cc(OC4CCN(C5CCN(c6ccc7c(c6)C(=O)N(C6CCC(=O)NC6=O)C7=O)CC5)CC4)c([N+](=O)[O-])cc3Cl)ccc21` (centres unmarked) [compound 79, 5-(4-(4-chloro-5-((1-methyl-2-oxo-1,2,3,4-tetrahydroquinolin-6-yl)amino)-2-nitrophenoxy)-[1,4′-bipiperidin]-1′-yl)-2-(2,6-dioxopiperidin-3-yl)isoindoline-1,3-dione], with over 100 nM; and `CNC(=O)COc1cc2cc(Nc3nc(N4CCC(OCCNc5cccc6c5C(=O)N(C5CCC(=O)NC5=O)C6=O)CC4)ncc3Cl)ccc2n(C)c1=O` (centres unmarked) [compound 80, 2-((6-((5-chloro-2-(4-(2-((2-(2,6-dioxopiperidin-3-yl)-1,3-dioxoisoindolin-4-yl)amino)ethoxy)piperidin-1-yl)pyrimidin-4-yl)amino)-1-methyl-2-oxo-1,2-dihydroquinolin-3-yl)oxy)-N-methylacetamide], with 50 to 100 nM.
Then `CNC(=O)COc1cc2cc(Nc3nc(N4CCC(OCCOCCOCCOCCOCCOCCNc5cccc6c5C(=O)N(C5CCC(=O)NC5=O)C6=O)CC4)ncc3Cl)ccc2n(C)c1=O` (centres unmarked) [compound 81, 2-((6-((5-chloro-2-(4-((17-((2-(2,6-dioxopiperidin-3-yl)-1,3-dioxoisoindolin-4-yl)amino)-3,6,9,12,15-pentaoxaheptadecyl)oxy)piperidin-1-yl)pyrimidin-4-yl)amino)-1-methyl-2-oxo-1,2-dihydroquinolin-3-yl)oxy)-N-methylacetamide], with over 100 nM.
As to `CNC(=O)COc1cc2cc(Nc3nc(N4CCC(OCCOCCOCCOCCOCCOCC(=O)N[C@H](C(=O)N5C[C@H](O)C[C@H]5C(=O)NCc5ccc(-c6scnc6C)cc5)C(C)(C)C)CC4)ncc3Cl)ccc2n(C)c1=O` [compound 82, (2S,4R)-1-((S)-2-(tert-butyl)-20-((1-(5-chloro-4-((1-methyl-3-(2-(methylamino)-2-oxoethoxy)-2-oxo-1,2-dihydroquinolin-6-yl)amino)pyrimidin-2-yl)piperidin-4-yl)oxy)-4-oxo-6,9,12,15,18-pentaoxa-3-azaicosanoyl)-4-hydroxy-N-(4-(4-methylthiazol-5-yl)benzyl)pyrrolidine-2-carboxamide], the DC50 was in the range of 50 to 100 nM.
`CNC(=O)COc1cc2cc(Nc3nc(N4CCC(OCCOCCOCCOCCOCCOCCOCC(=O)N[C@H](C(=O)N5C[C@H](O)C[C@H]5C(=O)NCc5ccc(-c6scnc6C)cc5)C(C)(C)C)CC4)ncc3Cl)ccc2n(C)c1=O` [compound 83, (2S,4R)-1-((S)-2-(tert-butyl)-23-((1-(5-chloro-4-((1-methyl-3-(2-(methylamino)-2-oxoethoxy)-2-oxo-1,2-dihydroquinolin-6-yl)amino)pyrimidin-2-yl)piperidin-4-yl)oxy)-4-oxo-6,9,12,15,18,21-hexaoxa-3-azatricosanoyl)-4-hydroxy-N-(4-(4-methylthiazol-5-yl)benzyl)pyrrolidine-2-carboxamide]: the DC50 lay in the range of 50 to 100 nM.
On to `CNC(=O)COc1cc2cc(Nc3nc(N4CCC(OCCOCCOCCOCCOCCOc5ccc6c(c5)CN(C5(C)CCC(=O)NC5=O)C6=O)CC4)ncc3Cl)ccc2n(C)c1=O` (centres unmarked) [compound 84, 2-((6-((5-chloro-2-(4-((14-((2-(3-methyl-2,6-dioxopiperidin-3-yl)-1-oxoisoindolin-5-yl)oxy)-3,6,9,12-tetraoxatetradecyl)oxy)piperidin-1-yl)pyrimidin-4-yl)amino)-1-methyl-2-oxo-1,2-dihydroquinolin-3-yl)oxy)-N-methylacetamide], for which the DC50 fell in the range of 10 to 50 nM.
Then `CN1C(=O)CCc2cc(Nc3cc(N4CCC(CN(C)[C@H]5C[C@H](Oc6ccc7c(c6)C(=O)N(C6CCC(=O)NC6=O)C7=O)C5)CC4)c([N+](=O)[O-])cc3Cl)ccc21` (some centres unmarked) [compound 85, 5-((1r,3r)-3-(((1-(4-chloro-5-((1-methyl-2-oxo-1,2,3,4-tetrahydroquinolin-6-yl)amino)-2-nitrophenyl)piperidin-4-yl)methyl)(methyl)amino)cyclobutoxy)-2-(2,6-dioxopiperidin-3-yl)isoindoline-1,3-dione], with over 100 nM; and `CNC(=O)COc1cc2cc(Nc3nc(N4CCC(OCCOCC(=O)N[C@H](C(=O)N5C[C@H](O)C[C@H]5C(=O)NCc5ccc(-c6scnc6C)cc5)C(C)(C)C)CC4)ncc3Cl)ccc2n(C)c1=O` [compound 86, (2S,4R)-1-((S)-2-(2-(2-((1-(5-chloro-4-((1-methyl-3-(2-(methylamino)-2-oxoethoxy)-2-oxo-1,2-dihydroquinolin-6-yl)amino)pyrimidin-2-yl)piperidin-4-yl)oxy)ethoxy)acetamido)-3,3-dimethylbutanoyl)-4-hydroxy-N-(4-(4-methylthiazol-5-yl)benzyl)pyrrolidine-2-carboxamide], with 50 to 100 nM; and `CNC(=O)COc1cc2cc(Nc3nc(N4CCC(OCCOCCOCCOCCOCCOc5ccc6c(c5)CN(C5CCC(=O)N(C)C5=O)C6=O)CC4)ncc3Cl)ccc2n(C)c1=O` (centres unmarked) [compound 87, 2-((6-((5-chloro-2-(4-((14-((2-(1-methyl-2,6-dioxopiperidin-3-yl)-1-oxoisoindolin-5-yl)oxy)-3,6,9,12-tetraoxatetradecyl)oxy)piperidin-1-yl)pyrimidin-4-yl)amino)-1-methyl-2-oxo-1,2-dihydroquinolin-3-yl)oxy)-N-methylacetamide], with 50 to 100 nM.
Regarding `CNC(=O)COc1cc2cc(Nc3nc(N4CCC(c5cccc(OCCOCCOCCOCCOc6ccc7c(c6)CN(C6CCC(=O)NC6=O)C7=O)c5)CC4)ncc3Cl)ccc2n(C)c1=O` (centres unmarked) [compound 88, 2-((6-((5-chloro-2-(4-(3-(2-(2-(2-(2-((2-(2,6-dioxopiperidin-3-yl)-1-oxoisoindolin-5-yl)oxy)ethoxy)ethoxy)ethoxy)ethoxy)phenyl)piperidin-1-yl)pyrimidin-4-yl)amino)-1-methyl-2-oxo-1,2-dihydroquinolin-3-yl)oxy)-N-methylacetamide], the DC50 lay within 10 to 50 nM.

Source of the values: patent publication US12310975B2, “Modulators of BCL6 proteolysis and associated methods of use” (Arvinas Operations, Inc., priority 2019, dated 2025).
